The values that follow come from PMC10184313, “Inhibition of Thiamine Diphosphate-Dependent Enzymes by Triazole-Based Thiamine Analogues” (ACS Medicinal Chemistry Letters, 2023).

The target in the test is T1, Z. mobilis PDC (Zymomonas mobilis subsp. mobilis, UniProt P06672).
T1 construct: made in house
T1 sequence (P06672 1-568): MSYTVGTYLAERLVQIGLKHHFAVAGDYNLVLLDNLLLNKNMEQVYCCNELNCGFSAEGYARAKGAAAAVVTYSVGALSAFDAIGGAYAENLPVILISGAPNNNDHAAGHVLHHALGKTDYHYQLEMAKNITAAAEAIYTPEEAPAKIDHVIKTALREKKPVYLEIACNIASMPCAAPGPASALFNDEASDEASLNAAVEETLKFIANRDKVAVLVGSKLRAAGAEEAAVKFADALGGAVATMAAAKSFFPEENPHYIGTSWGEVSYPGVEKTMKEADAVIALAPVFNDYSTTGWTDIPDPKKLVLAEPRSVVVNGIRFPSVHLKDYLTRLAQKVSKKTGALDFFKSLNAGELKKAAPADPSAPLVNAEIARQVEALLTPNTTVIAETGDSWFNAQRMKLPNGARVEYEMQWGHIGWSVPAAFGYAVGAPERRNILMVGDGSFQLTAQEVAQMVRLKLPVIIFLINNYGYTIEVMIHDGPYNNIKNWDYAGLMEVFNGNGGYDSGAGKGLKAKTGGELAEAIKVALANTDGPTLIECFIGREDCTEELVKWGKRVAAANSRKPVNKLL
Nature of the test: Z. mobilis PDC inhibitory activity assay (NADH consumption). The format is biochemical. As to conditions: for Ki: Z. mobilis PDC, determined according to the KM for ThDP; for IC50: bacterial PDC (Zymomonas mobilis), [ThDP] 10 μM.

As a reminder, the Ki is a dissociation constant, usually derived from enzyme kinetics or from competition with a known ligand. Read a high Ki as a looser hold on the target. As usually defined, the IC50 is the midpoint of a concentration-inhibition curve. A low value points to greater potency. Take `Cc1ncc(Cn2cc(CCCCC(=O)NO)nn2)c(N)n1` [Compound 24c]: the Ki amounted to 0.89 µM and it took 25 ± 2 µM to reach half-maximal inhibition (IC50).

`Cc1ncc(Cn2cc(CCCC(=O)NO)nn2)c(N)n1` [Compound 24b] returned a Ki of 0.68 µM and an IC50 of 20 ± 2 µM.
